Assay results published in paper PMC11984924, “Dipeptidic Phosphonates: Potent Inhibitors of Pseudomonas aeruginosa Elastase B Showing Efficacy in a Murine Keratitis Model” (Advanced Science, 2025).

Legend:
[1] = biological target: T1, MMP-3 (Homo sapiens, UniProt P08254); test: MMP-3 inhibition (off-target); type: biochemical; details: read-out: MMP-3 % inhibition at 100 µM
T1 construct: purchased AnaSpec (Fremont, CA, USA)
Method: (§1) 3.1 In vitro inhibition assays
(§2) LasB was expressed and purified as described previously.[3] In vitro inhibition assays (LasB, MMPs, TACE). All in vitro inhibition assays were performed as described previously.[10] TACE inhibitor screening kits were purchased from Sigma-Aldrich (Saint Louis, MO). MMPs along with the SensoLyte 520 Generic MMP Activity Kit Fluorimetric were purchased from AnaSpec (Fremont, CA, USA). The assays were performed according to the guidelines of the respective manufacturer. Fluorescence signals were measured using a CLARIOstar plate reader (BMG Labtech, Ortenberg, Germany). […]
(§3) 3.8 Test against zinc metalloproteases MMP1–3 and TACE (ADAM17), and testing of
(§4) We selected a panel of human off -targets, including three human matrix metalloproteases (MMP-1, -2 and -3) and TACE (ADAM-17). These assays were performed as described previously.[3] The TACE inhibitor screening kit was purchased from Sigma -Aldrich (Saint Louis, MO). MMPs along with the SensoLyte 520 Generic MMP Activity Kit Fluorimetric were purchased from AnaSpec (Fremont, CA, USA). The assays were performed according to the guidelines of the respective manufacturer. Fluorescence signals were measured using a CLARIOstar plate reader (BMG Labtech, Ortenberg, Germany). […]
(§5) Table S6: Percent (%) inhibition of three MMPs (1 –3) and TACE (ADAM17) in presence of selected LasB inhibitors at 100 µM. Results are means and SD of at least two independent experiments. […]
(§6) Compound [% inhibition at [% inhibition at [% inhibition at [% inhibition at 100

[2] = test system: A549 cells; test: Cytotoxicity A549; type: cell-based; details: Homo sapiens, A549, read-out: A549 % inhibition at 100 µM (metabolic activity), 48 hours
Method: (§7) HepG2 (human hepatocellular carcinoma), HEK293 (human embryonal kidney) and A549
(§8) (human lung carcinoma) cells (2x10^5 cells per well) were seeded in 24-well in flat-bottomed
(§9) plates. Culturing of cells, incubations and OD measurements were performed as described
(§10) previously with small modifications.[14] Twenty-four hours after seeding the cells the incubation
(§11) was started by the addition of compounds in a final DMSO concentration of 1%. The living cell
(§12) mass was determined after 48 hours in a PHERAstar microplate reader (BMG labtech,
(§13) Ortenberg, Germany). Two independent measurements were performed for each compound.

[3] = Plasma stability, mouse; type: in vitro ADME; details: CD-1, read-out: Plasma t1/2 Mouse
Method: To determine stability in plasma, the compound (1 µM) was incubated with pooled CD -1 […]
mouse/human/Wistar rat or Göttingen minipig plasma (Neo Biotech, Nanterre, France).
Samples were taken by mixing aliquots with 4 volumes of acetonitrile containing internal […]
standard (125 nM diphenhydramine). The plasma stability of procain, propantheline and diltiazem were determined in parallel to confirm the enzymatic activity. Samples were stored […]
on ice until the end of the incubation and precipitated protein was removed by centrifugation […]
(15 min, 4 °C, 4,000 g, two centrifugation steps). Concentration of the remaining test compound at the different time points was analyzed by HPLC-MS/MS (TSQ Quantum Access MAX, […]
Thermo Fisher, Dreieich, Germany) and used to determine half-life (t1/2).
Table S2: Additional in vitro ADMET data for selected dipeptides. n.d.: not determined.
Kinetic Liver S9 Clint [µL/mg/min] Plasma t1/2 [min] LogD7.4 […]
pH 7.4 [µM] Mouse Human Mouse Human

[4] = biological target: T2, TACE (ADAM17) (Homo sapiens, UniProt P78536); test: TACE (ADAM17) inhibition (off-target); type: biochemical; details: read-out: TACE (ADAM17) % inhibition at 100 µM
T2 construct: purchased Sigma-Aldrich (Saint Louis, MO)
Method: as §1, §2, §3, §4, §5, §6

[5] = biological target: T3, MMP-1 (Homo sapiens, UniProt P03956); test: MMP-1 inhibition (off-target); type: biochemical; details: read-out: MMP-1 % inhibition at 100 µM
T3 construct: purchased AnaSpec (Fremont, CA, USA)
T3 sequence (P03956 100-469): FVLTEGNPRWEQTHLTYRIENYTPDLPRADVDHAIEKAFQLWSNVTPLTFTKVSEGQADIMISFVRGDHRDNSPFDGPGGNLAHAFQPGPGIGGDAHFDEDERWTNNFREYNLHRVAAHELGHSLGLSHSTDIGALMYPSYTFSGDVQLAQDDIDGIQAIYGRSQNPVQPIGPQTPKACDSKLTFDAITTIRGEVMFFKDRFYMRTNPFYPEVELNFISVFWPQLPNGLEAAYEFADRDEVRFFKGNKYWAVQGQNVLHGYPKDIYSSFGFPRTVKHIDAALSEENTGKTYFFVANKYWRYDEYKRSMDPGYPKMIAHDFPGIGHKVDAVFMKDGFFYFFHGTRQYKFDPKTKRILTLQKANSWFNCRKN
Method: as §1, §2, §3, §4, §5, §6

[6] = biological target: T4, MMP-2 (Homo sapiens, UniProt P08253); test: MMP-2 inhibition (off-target); type: biochemical; details: read-out: MMP-2 % inhibition at 100 µM
T4 construct: purchased AnaSpec (Fremont, CA, USA)
T4 sequence (P08253 110-660): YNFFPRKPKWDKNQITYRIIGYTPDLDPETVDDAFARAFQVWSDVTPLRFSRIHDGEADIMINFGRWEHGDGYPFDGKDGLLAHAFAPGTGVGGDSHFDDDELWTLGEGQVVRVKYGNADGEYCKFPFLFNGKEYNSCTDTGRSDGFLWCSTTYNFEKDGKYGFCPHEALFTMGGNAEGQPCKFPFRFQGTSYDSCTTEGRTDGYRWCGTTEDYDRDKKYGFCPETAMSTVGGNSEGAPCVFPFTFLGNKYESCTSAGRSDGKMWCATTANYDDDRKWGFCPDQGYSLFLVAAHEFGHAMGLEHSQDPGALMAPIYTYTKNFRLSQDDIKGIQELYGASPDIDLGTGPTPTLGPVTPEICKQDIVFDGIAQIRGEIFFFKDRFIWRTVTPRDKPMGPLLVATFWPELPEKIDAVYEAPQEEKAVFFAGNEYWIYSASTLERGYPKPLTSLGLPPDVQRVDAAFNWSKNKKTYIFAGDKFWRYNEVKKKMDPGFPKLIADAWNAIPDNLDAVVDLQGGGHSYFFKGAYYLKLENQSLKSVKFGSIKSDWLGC
Method: 3.1 In vitro inhibition assays […]
as §2, with “MMPs,” for “LasB was expressed and purified as described previously.[3] In vitro inhibition assays (LasB, MMPs,”
as §3, §4, §5, §6

[7] = test system: HepG2 cells; test: Cytotoxicity HepG2; type: cell-based; details: Homo sapiens, HepG2, read-out: HepG2 % inhibition at 100 µM (metabolic activity), 48 hours
Method: as §7, §8, §9, §10, §11, §12, §13

[8] = test system: HEK293 cells; test: Cytotoxicity HEK293; type: cell-based; details: Homo sapiens, HEK293, read-out: HEK293 % inhibition at 100 µM (metabolic activity), 48 hours
Method: as §7, §8, §9, §10, §11, §12, §13

T1 sequence (P08254 100-477): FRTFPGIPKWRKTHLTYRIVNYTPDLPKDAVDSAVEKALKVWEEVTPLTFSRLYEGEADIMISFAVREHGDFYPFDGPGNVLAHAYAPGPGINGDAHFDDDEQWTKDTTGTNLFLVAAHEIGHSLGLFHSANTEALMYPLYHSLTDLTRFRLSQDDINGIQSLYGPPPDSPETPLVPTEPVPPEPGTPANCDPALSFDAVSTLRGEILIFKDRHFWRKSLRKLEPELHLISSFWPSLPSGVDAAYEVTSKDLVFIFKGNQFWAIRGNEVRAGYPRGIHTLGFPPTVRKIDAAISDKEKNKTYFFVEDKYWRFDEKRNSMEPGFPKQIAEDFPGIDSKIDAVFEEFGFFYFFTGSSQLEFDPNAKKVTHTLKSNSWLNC
T2 sequence (P78536 215-824): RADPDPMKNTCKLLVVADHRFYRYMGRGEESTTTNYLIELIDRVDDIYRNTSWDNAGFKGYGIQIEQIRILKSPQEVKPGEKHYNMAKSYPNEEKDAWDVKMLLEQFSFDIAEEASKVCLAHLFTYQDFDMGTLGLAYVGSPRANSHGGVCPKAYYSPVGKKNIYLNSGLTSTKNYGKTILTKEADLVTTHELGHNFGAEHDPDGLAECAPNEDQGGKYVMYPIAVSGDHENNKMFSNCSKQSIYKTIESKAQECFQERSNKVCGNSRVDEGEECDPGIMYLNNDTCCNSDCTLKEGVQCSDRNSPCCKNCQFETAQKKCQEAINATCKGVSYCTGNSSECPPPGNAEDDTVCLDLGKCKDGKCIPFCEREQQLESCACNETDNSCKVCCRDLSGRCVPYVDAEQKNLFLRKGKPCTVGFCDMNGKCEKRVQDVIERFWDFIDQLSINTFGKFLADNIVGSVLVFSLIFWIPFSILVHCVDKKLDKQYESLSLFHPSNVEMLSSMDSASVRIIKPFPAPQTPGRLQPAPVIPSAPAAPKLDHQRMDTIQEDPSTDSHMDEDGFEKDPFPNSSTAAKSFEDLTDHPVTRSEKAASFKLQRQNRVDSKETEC

Row | SMILES | inhibition at 100 µM [1] | inhibition at 100 µM [2] | half-life at 1 µM [3] | inhibition at 100 µM [4] | inhibition at 100 µM [5] | inhibition at 100 µM [6] | inhibition at 100 µM [7] | inhibition at 100 µM [8]
1 | CC(=O)c1ccc(NC(=O)[C@@H](NC(=O)[C@@H](CC(C)C)P(=O)(O)O)C(C)C)cc1 [(R)‐30] | < 10% | < 10% | > 2.5 h | 13 ± 2% | < 10% | < 10% | < 10% | < 10%
2 | CC(C)C[C@H](C(=O)N[C@H](C(=O)Nc1ccc(-n2ccnc2)cc1)C(C)C)P(=O)(O)O [(R)‐36] | < 10% | < 10% | > 2.5 h | < 10% | < 10% | < 10% | < 10% | 11 ± 9%
3 | CC(C)CC(C(=O)N[C@H](C(=O)Nc1ccc(Cl)c(Cl)c1)C(C)C)P(=O)(O)O (stereo partly drawn) [compound 9] | < 10% | < 10% | > 2.5 h | < 10% | 13 ± 1% | < 10% | < 10% | < 10%
4 | CC(C)CC(C(=O)N[C@H](C(=O)Nc1ccc(Cl)c(Cl)c1)C1CCC1)P(=O)(O)O (stereo partly drawn) [compound 13] | < 10% | < 10% | > 2.5 h | < 10% | < 10% | < 10% | < 10% | < 10%
5 | CC(C)CC(C(=O)N[C@H](C(=O)Nc1ccc(Cl)c(Cl)c1)C1CCCCC1)P(=O)(O)O (stereo partly drawn) [compound 14] | < 10% | < 10% | > 2.5 h | < 10% | < 10% | < 10% | 13% | 51 ± 4%
6 | CC(=O)c1ccc(NC(=O)[C@@H](NC(=O)C(CC(C)C)P(=O)(O)O)C(C)C)cc1 (stereo partly drawn) [compound 30] | < 10% | < 10% | > 2.5 h | 13 ± 4% | < 10% | < 10% | < 10% | < 10%
